This data set can be described thus: Solubility of sweetening agents in medium-chain triglycerides (MCT). As for the experimental part: 18 mg of neotame, 20 mg of saccharin, 1 mg of sodium saccharin or 5 mg of thaumatin was mixed with medium-chain triglycerides (MCT; USP/NF) to give the total weight of 180 g, 20 g, 100 g or 500 g respectively.
Solubility and sensory tests of sweetening agents were conducted. Specifically, 7.2 mg of neotame, 20 mg of saccharin or 5 mg of sucralose was mixed with medium-chain triglycerides (MCT; USP/NF) to give the total weight of 40 g, 20 g or 100 g, respectively. Additionally, 1 mg of a sweetening agent was mixed with medium-chain triglycerides (MCT; USP/NF) to give the total weight of its mixtures of 100 g. The sweetening agent was sodium saccharin, thaumatin, aspartame, acesulfame potassium, sucrose, glucose, fructose, lactose, D-sorbitol, or xylitol.

The mark [1] stands for this setting: Example 5, medium-chain triglycerides (USP/NF).

Consider eleven molecules from US20170020890A1, “PHARMACEUTICAL COMPOSITION COMPRISING FATTY ACID DERIVATIVE” (SUCAMPO AG, priority 2015, published 2017).

Read-outs that look alike come from different tables or passages of the source. Peptide text beside a SMILES is read from it.

Turning to `O=C1NS(=O)(=O)c2ccccc21` [Saccharin, 2H-1λ^6,2-benzothiazol-1,1,3-trione], the “Solubility in MCT” value was determined as 0.1 w/w %; the “Solubility in MCT, in words” value was “solved in MCT”; the “Solubility to MCT” value turned out to be 0.1%. `OC[C@H]1O[C@H](O[C@]2(CCl)O[C@H](CCl)[C@@H](O)[C@@H]2O)[C@H](O)[C@@H](O)[C@H]1Cl` [Sucralose, 1,6-Dichloro-1,6-dideoxy-β-D-fructofuranosyl-4-chloro-4-deoxy-α-D-galactopyranoside]: the “Solubility in MCT” value was 0.005 w/w % and the “Solubility in MCT, in words” value was “solved in MCT”. `OC[C@@H](O)[C@H](O)[C@@H](O)CO` [Xylitol, xylitol]: the “Solubility in MCT” value is less than 0.001 w/w %. For `COC(=O)[C@H](Cc1ccccc1)NC(=O)[C@H](CC(=O)O)NCCC(C)(C)C` [Neotame], the “Solubility in MCT” value is listed as 0.018 w/w %; the “Solubility in MCT, in words” value was “solved in MCT”; the “Solubility to MCT” value turned out to be 0.01%. Take `O=C(CO)[C@@H](O)[C@H](O)[C@H](O)CO` [Fructose, fructose]: the “Solubility in MCT” value under setting [1] is less than 0.001 w/w %.

Turning to `CC1=CC(=O)NS(=O)(=O)O1` [Acesulfame potassium, acesulfame potassium], the “Solubility in MCT” value is less than 0.001 w/w %. In the case of `O=C1NS(=O)(=O)c2ccccc21.[Na]` [Sodium saccharin, sodium saccharin], the “Solubility to MCT” value (Example 1, medium-chain triglycerides (USP/NF)) was less than 0.001%. Besides, the “Solubility in MCT” value under setting [1] is given as less than 0.001 w/w %. Further, where the note is “Examples 1 and 5”, the “Solubility in MCT, in words” value is “did not solve in MCT”. As to `COC(=O)[C@H](Cc1ccccc1)NC(=O)[C@@H](N)CC(=O)O` [Aspartame, aspartame] (H-Asp-Phe-OMe), the “Solubility in MCT” value was less than 0.001 w/w %. On the same count and under the same terms, with `OC[C@H]1O[C@@](CO)(O[C@H]2O[C@H](CO)[C@@H](O)[C@H](O)[C@H]2O)[C@@H](O)[C@@H]1O` [Sucrose, sucrose] the figure was less than 0.001 w/w %. Turning to `OC[C@@H](O)[C@@H](O)[C@H](O)[C@@H](O)CO` [D-Sorbitol, D-sorbitol], the “Solubility in MCT” value is less than 0.001 w/w %. As for thaumatin, the “Solubility in MCT” value is recorded as less than 0.001 w/w %; the “Solubility in MCT, in words” value is “did not solve in MCT”; the “Solubility to MCT” value is reported as less than 0.001%.
